The values below come from publication PMC13492380, “Dissecting Structural and Functional Determinants of Microtubules Stabilization through Guided Chemical Modulation” (Journal of Medicinal Chemistry, 2026).

In experiment [1] the test system is human Kif5B 1–905-EGFP on stabilized MTs. Nature of the experiment: Single-molecule kinesin-1 motility assay on stabilized MTs (TIRF). The format is biochemical. The settings on record: 1.08 nM Kif5b-EGFP, 10 μM drug. As to the method:
To gain mechanistic insight into the kinesin phenotype observed in cells, we reduced system complexity using an in vitro reconstitution assay. Specifically, we performed time-lapse imaging using total internal reflection fluorescence (TIRF) microscopy with immobilized and stabilized MTs in a flow chamber, into which we introduced 1.08 nM kinesin-1 motors (constitutively active human Kif5B 1–905-EGFP). We then analyzed individual kinesin movements to quantify landing rates (number of motors per unit MT length per unit time), run lengths, interaction times, and average velocities (Figure D, Movies S12–S15). In contrast to our experiments in cells, here we evaluated each structural modification individually to dissect the effects of MT lattice parameters on kinesin-1 mediated transport.
(§1) Total Internal Reflection Fluorescence microscopy experiments were performed on an inverted widefield microscope Nikon-Ti2 E, equipped with a motorized XY-stage, a perfect focus system, Apo TIRF 60× oil NA 1.49 objective and PRIME BSY (Teledyne Photometrics) camera. MTs were visualized using Interference Reflection microscopy (IRM) and fluorescently labeled proteins were visualized sequentially by switching between microscope filter cubes for GFP and mCherry channels. The microscopes were controlled using NIS Elements software (Nikon). All experiments were conducted at RT.
(§2) Microscopy chambers were prepared from two sandwiched silanized glass coverslips (22 × 22 mm^2 and 18 × 18 mm^2) attached through parafilm strips (heated for 15–20 s at 60 °C and gently pressed together) to form ∼2.5 mm wide parallel flow channels. Prior to the chamber assembly, the coverslips were washed in 3 M KOH, cleaned using Zepto plasma cleaner (Diener electronic) and silanized with hexamethyldisilazane. Flow channels were first incubated with 40 μgml^–1 antibiotin antibodies (Sigma, B3640) in PBS for 10 min, followed by incubation with 1% Pluronic F127 (Sigma-Aldrich, P2443) in PBS for at least 1 h. F127 was washed with BRB80 (80 mM PIPES, 1 mM EGTA, 1 mM MgCl2, pH 6.9).
(§3) Porcine brain tubulin was isolated using the high-molarity PIPES procedure then mixed with Biotin labeled tubulin (Cytoskeleton Inc., T333P) in 1:49 ratio. All MTs were polymerized using 2% biotin-labeled tubulin. […] Polymerized MTs were centrifuged for 30 min at 18,000g in a Microfuge 18 Centrifuge (Beckman Coulter’s). […] Drug stabilized preassembly MTs (polymerized in the presence of drugs and GTP, stored and imaged in presence of drug) were polymerized from 4 mg mL^–1 biotinylated tubulin for 30 min at 37 °C in BRB80 supplemented with 4 mM MgCl2, 40 μM drug of interest in 5% DMSO, and 1 mM GTP. Polymerized MTs were centrifuged for 30 min at 18,000g in a Microfuge 18 Centrifuge (Beckman Coulter’s). […] GMPCPP stabilized MTs (GMPCPP polymerized) were assembled from 4 mg mL^–1 biotinylated tubulin for 2 h at 37 °C in BRB80 supplemented with 1 mM MgCl2 and 1 mM GMPCPP (Jena Bioscience, NU-405). Polymerized MTs were centrifuged for 30 min at 18,000g in a Microfuge 18 Centrifuge (Beckman Coulter’s) and pellets were resuspended and kept in BRB80.
Stabilized MTs were flushed into the channel and incubated for 15–30 s to allow for surface attachment. Unbound MTs were removed by washing with BRB80 supplemented with 10 μM of drug. Prior the experiment, the solution was exchanged by motility buffer, MB (BRB80 containing 10 mM DTT, 20 mM D-glucose, 0.1% Tween-20, 0.5 mg/mL casein, 1 mM Mg-ATP, 0.02 mg/mL catalase, 0.22 mg/mL glucose oxidase, 10 μM drug). Subsequently, a solution containing either 1.08 nM Kif5b-EGFP or 10/40 nM mCherry-Tau in MB was introduced into the chamber.
To assess kinesin-EGFP motility along MTs, an IRM image (50 ms exposure) was acquired followed by a 1 min video using 488 nm laser excitation (20% laser intensity, 300 ms exposure) with no delay. Two to three videos were recorded from different fields within the same channel and at least 2 channels were measure for each experimental condition. […]

The subject of experiment [2] is Tau-mCherry (Tau 441 isoform) on stabilized MTs from porcine brain tubulin. Nature of the experiment: Tau-mCherry binding to stabilized MTs (TIRF). The format is biochemical. The settings on record: 40 nM Tau-mCherry.
Text: Previous studies in vitro have shown that Tau molecules strongly prefer compacted GDP lattices. Tau binds cooperatively to MT surfaces, resulting in a cohesive layer depending on tau-tau interactions, termed MT envelope, which selectively regulates access to MT lattices, and shields MTs from severing enzymes. − On expanded PTX-MTs, Tau envelope also forms and the lattice can get locally compacted. To further explore how MT lattice structure influences Tau binding, we employed an in vitro reconstitution assay. We deposited stabilized MTs in a flow chamber, and visualized them via interference reflection microscopy (Figure C). We then added 10 nM Tau-mCherry (labeled purified Tau 441 isoform at the C-terminus with mCherry) and monitored its association with MTs using time-lapse TIRF microscopy. After 4 min, we increased Tau concentration to 40 nM, and continued imaging for an additional 4 min. We measured fluorescence intensities along MTs to quantify Tau binding (Movies S16–S27). […] PTXpost-MTs also supported […] faster envelope growth (0.20 ± 0.02 μm/s versus 0.054 ± 0.006 μm/s for PTXpre-MTs, Figure H).
as §1, §2, §3
Stabilized MTs were flushed into the channel and incubated for 15–30 s to allow for surface attachment. Unbound MTs were removed by washing with BRB80 supplemented with 10 μM of drug. Prior the experiment, the solution was exchanged by motility buffer, MB (BRB80 containing 10 mM DTT, 20 mM D-glucose, 0.1% Tween-20, 0.5 mg/mL casein, 1 mM Mg-ATP, 0.02 mg/mL catalase, 0.22 mg/mL glucose oxidase, 10 μM drug). Subsequently, a solution containing either 1.08 nM Kif5b-EGFP or 10/40 nM mCherry-Tau in MB was introduced into the chamber. […]

The test system of experiment [3] is taxane site of assembled cross-linked MTs. Nature of the experiment: Displacement of FTX2 from the taxane site (fluorescence polarization). The format is binding, calf. The settings on record: 35 °C. As to the method: Purified calf brain tubulin and chemicals were obtained as previously described. Tau-mCherry was expressed and purified as described previously. Human Kif5B-EGFP (amino acids 1-905), containing a C terminal fluorescent-tag followed by a 3C protease cleavage site and a 6 × His-tag was expressed and purified as in with some modifications. Prior to purification, cells were resuspended in 1:1 ratio of lysis buffer (30 mM HEPES pH 7.5, 300 mM NaCl, 0.5 mM ATP, 5% glycerol, 20 mM imidazole, […]) supplemented with 1× Protease inhibitor cocktail and benzonase to the final concentration of 25 units/ml. Cells were homogenized by repeated pipetting. Cells were lysed by spinning for 45 min at 40,000 rpm in 45 Ti fixed-angle rotor (Beckman Coulter) at 4 °C. The supernatant was incubated with pre-equilibrated HisPUR NiNTA agarose resin (Thermo Fisher Scientific) for 1 h in a tightly closed gravity-flow column (Thermo Fisher Scientific) at 4 °C by slowly rotating. Subsequently, the resin was washed once lysis buffer and then with buffer B (30 mM HEPES pH 7.5, 300 mM NaCl, 0.5 mM ATP, 5% glycerol, 30 mM imidazole, […]). The protein was eluted from the resin after an overnight cleavage of the 6 × His-tag with 3C HRV protease in lysis buffer at 4 °C. The eluted protein was further purified via size exclusion chromatography on Superdex 200 10/300 GL column equilibrated in exclusion buffer (30 mM HEPES pH 7.5, 300 mM NaCl, 0.5 mM ATP, 5% glycerol, […]). Peak fractions were analyzed via SDS-PAGE, pooled and the protein was concentrated with Amicon Ultra-15 Centrifugal Filter tubes (Millipore). Purified proteins were aliquoted, snap-frozen in liquid N2, and stored at −80 °C.
The equilibrium binding constant of 1a and 1b to the taxane site of assembled MTs were determined by the displacement of FTX2 from the taxane site in cross-linked MTs. The displacement isotherm of each ligand was measured at least three times in two different plates with a fluorescence polarization microplate reader, as described. A mixture of 50 nM taxane binding sites and 50 nM FTX2 in GAB buffer was sampled in a 96-well plate. […] After mixing the samples for 10 min by shaking at 250 rpm, they were incubated 20 min at the desired temperatures (26, 35 or 42 °C) and their anisotropies were measured using a Spark Tecan plater reader in fluorescence polarization at emission of 535 nm and excitation of 485 nm. A sample containing 50 nM taxane binding sites was employed as blank, and a 50 nM solution of FTX2 in GAB, 0.1 mM GTP was employed as anisotropy standard. G factor was calculated as a mean over several cells in different conditions. The molar saturation fraction, X b , of the probe for each competitor concentration is calculated from the polarization values measured, P. Measurements of the polarization of FTX2 completely displaced (P 0 ) and, in absence of the competitor ligand (P sat), are required for data processing. The binding of FTX2 in the presence of the competitor ligand (X b = (P–P 0 /P sat – P 0 ) · X sat) was calculated and best fitted to the equilibrium binding constant of the competitor assuming unitary stoichiometry and the binding constant of the reference ligand (FTX2) with a PC program (Equigra v5).
Once the equilibrium binding constants are measured at different temperatures, the standard free energy of binding at a given temperature is calculated from the binding constant as ΔG 0app = −RT Ln K a, the standard enthalpy of the binding reaction is calculated from the representation of Ln K a versus 1/T (Van’t Hoff representation), and the slope of this representation multiplied by −R is equal to −ΔH 0app. The standard entropy of binding to ΔS 0app is calculated from the slope of the linear regression of ΔG 0app versus T.

With `Nc1nc2c(ncn2C2OC(COP(=O)(O)CP(=O)(O)OP(=O)(O)O)C(O)C2O)c(=O)[nH]1` (stereo not drawn) [GMPCPP, guanosine-5′-[(α,β)-methyleno]triphosphate], in experiment [1], the “kinesin-1 landing rate on stabilized MTs” value is listed as “decreased on GMPCPP compared with PTX”, the “kinesin-1 time bound on stabilized MTs” value was “increased the time bound” and the “kinesin-1 velocity on stabilized MTs” value is listed as “decreased the velocity”. The “Tau-mCherry coating of stabilized MTs” value in experiment [2] is given as “bound diffusively”.
Regarding `CC(=O)OC1C(=O)C2(C)C(OC(=O)C(C)NC(=O)CCCCCNC(=O)c3ccc(-c4c5ccc(=O)cc-5oc5cc(O)ccc45)c(C(=O)O)c3)CC3OCC3(OC(C)=O)C2C(OC(=O)c2ccccc2)C2(O)CC(OC(=O)C(O)C(NC(=O)c3ccccc3)c3ccccc3)C(C)=C1C2(C)C` (stereo not drawn) [HFX, Hexaflutax, reference compound], in experiment [3], the “incremental binding free energy (ΔΔG), PTX-to-derivative modification” value came out at 6.9 kJ mol^–1.
Consider Flutax-1 [reference compound], for which the “incremental binding free energy (ΔΔG), PTX-to-derivative modification” value in experiment [3] is listed as −1.63 kJ mol^–1.
